Patent publication US20170151226A1, “Treatment of Breast Cancer with Liposomal Irinotecan” (priority 2014, published 2017)

What was measured:
TNBC LM2-4-luc cells = assay: TNBC LM2-4 mouse model of spontaneous metastasis; assay type: in vivo, SCID mice; conditions: nal-IRI 10 mg/kg salt, nonliposomal irinotecan 50 mg/kg salt, IV every 7 days
Description: 42 female SCID mice were inoculated with TNBC LM2-4-luc cells in their lower right inguinal mammary fat pad. […] Post primary tumor resection, bioluminescence imaging (BLI), (BLI, Xenogen, Perkin Elmer) was used to monitor metastasis formulation. […] Animals were monitored 2-3 times per week using BLI and at the study endpoint using a 1T MRI (M3, Aspect Imaging).

[1] = 5-day regimen; cited from earlier work

| SMILES | Metastatic burden, median bioluminescence flux (TNBC LM2-4-luc cells; day 12) | Median survival (TNBC LM2-4-luc cells) [days] | Maximum tolerated dose [1] |
| --- | --- | --- | --- |
| CCc1c2c(nc3ccc(OC(=O)N4CCC(N5CCCCC5)CC4)cc13)-c1cc3c(c(=O)n1C2)COC(=O)[C@]3(O)CC [irinotecan] | 2.1×10^9 | 14 | – |
| C[C@@H](O)[C@@H]1NC(=O)[C@H](CCCCN)NC(=O)[C@@H](Cc2c[nH]c3ccccc23)NC(=O)[C@H](Cc2ccccc2)NC(=O)[C@@H](NC(=O)[C@H](N)Cc2ccccc2)CSSC[C@@H](C(=O)N[C@H](CO)[C@@H](C)O)NC1=O [octreotide] | – | – | 2000 micrograms three times daily |
